The target in the data set is HSD17B13. The settings on record: ASO, HepaRG.

81 sequences from the OligoGym collection can be followed below.

After the bases stand the sugars from the 5' end (letter, count) and the backbone: PS all phosphorothioate, else s phosphorothioate and o phosphodiester by linkage. Methylation of C is not given here. e = 2'-O-(2-methoxyethyl) (MOE); k = constrained ethyl (cEt); d = 2'-deoxy (DNA); m = 2'-O-methyl

In turn, CTACATGGATCCAACA (sugars k3 d10 k3, PS) displayed a target mRNA inhibition (1 µM) of 5%. Turning to “TAGTATAGTTATCTTC (sugars k3 d9 k3 e1, PS)”, where the note is “1 µM”, the target mRNA inhibition amounted to 28%.

As for TAGGAAAGCTCATGGT (sugars k3 d10 k3, PS), the target mRNA inhibition (1 µM) turned out to be 27%. For “GTGCATCTTAAGATAC (sugars k3 d9 k3 e1, PS)”, the target mRNA inhibition (1 µM) is 29%. Same read-out and setting: then “GTAAGTATTCCATCTA (sugars kkdddddddddkekek, PS)”, with 53%. For the sequence CAGAGTTATTGTAGGG (sugars k3 d10 k3, PS), the target mRNA inhibition (0.02 µM) was found to be 16%; the target mRNA inhibition (0.078 µM) turned out to be 24%; the target mRNA inhibition (0.313 µM) worked out at 51%; the target mRNA inhibition (1 µM) stood at 83%; the target mRNA inhibition (1.25 µM) was 74%; the target mRNA inhibition (5 µM) was found to be 93%.

TGCTTACGACAGGTCA (sugars k3 d10 k3, PS) yielded a target mRNA inhibition (0.02 µM) of 0%; a target mRNA inhibition (0.078 µM) of 21%; a target mRNA inhibition (0.313 µM) of 57%; a target mRNA inhibition (1 µM) of 81%; a target mRNA inhibition (1.25 µM) of 70%; a target mRNA inhibition (5 µM) of 90%.

As to CTCTTGACAATGGTTG (sugars k3 d10 k3, PS), where the note is “1 µM”, the target mRNA inhibition is 50%. Same read-out and setting: then “GAATGCTACTTGAACA (sugars kkdddddddddkekek, PS)”, with 48%. Same read-out and setting: in the case of CACTGATACATACCAC (sugars k3 d10 k3, PS) it was 64%; in that of TGAACTGAAACGATCC (sugars k3 d10 k3, PS), 58%. As for “AGTGCCAAACCAATGT (sugars kkdddddddddkekek, PS)”, the target mRNA inhibition was found to be 13% (0.02 µM); 2% (0.078 µM); 40% (0.313 µM); 71% (1 µM); 61% (1.25 µM); 83% (5 µM). Sequence AACTCTATTGATTGGC (sugars k3 d10 k3, PS) had a target mRNA inhibition (1 µM) of 72%.

Under “1 µM”, “TTCCATCTATCAGACT (sugars k3 d9 k3 e1, PS)” displayed a target mRNA inhibition of 43%. The same measure, in the same setting: in the case of TAGCTTTTGTCCACCT (sugars k3 d10 k3, PS) it was 60%. Same read-out and setting: in the case of “GATTAAGCAGAATTGT (sugars kkdddddddddkekek, PS)” it was 31%. GTGGGATAAACTGTTC (sugars k3 d10 k3, PS) showed a target mRNA inhibition (1 µM) of 52%. Where the note is “1 µM”, CTGATATGAGTAAAGA (sugars k3 d10 k3, PS) had a target mRNA inhibition of 21%. ACCGTATTCCCAACGC (sugars k3 d10 k3, PS): the target mRNA inhibition (0.02 µM) came to 14%; the target mRNA inhibition (0.078 µM) was determined as 35%; the target mRNA inhibition (0.313 µM) came out at 76%; the target mRNA inhibition (1 µM) was 90%; the target mRNA inhibition (1.25 µM) came out at 83%; the target mRNA inhibition (5 µM) is 94%. “CATAATAATAGCTCTA (sugars kkdddddddddkekek, PS)” displayed a target mRNA inhibition (1 µM) of 13%. The same measure, in the same setting: then “TTGGAATGCTACTTGA (sugars k3 d9 k3 e1, PS)”, with 56%. In turn, TCACCTGATTTAGAGA (sugars k3 d10 k3, PS) displayed a target mRNA inhibition (1 µM) of 13%.

GAGTTATTCTCTTGAC (sugars k3 d10 k3, PS) returned a target mRNA inhibition (1 µM) of 57%. The same measure, in the same setting: in the case of ATTTAGAAACTGCTCC (sugars k3 d10 k3, PS) it was 21%; in that of “GTTGCACCGTTTTGGG (sugars kkdddddddddkekek, PS)”, 35%; in that of AGCTAGACAATTGCAA (sugars k3 d10 k3, PS), 30%. On the same count and under the same terms, then TGAGCCTAAAATTGTC (sugars k3 d10 k3, PS), with 30%; and ATTCCATCTATCAGAC (sugars k3 d10 k3, PS), with 7%. Still for that read-out and setting: then AGACAGGGTGGTAACG (sugars k3 d10 k3, PS), with 51%; and CTCTAAGTGTAAGAGA (sugars k3 d10 k3, PS), with 28%; and AATTTATTTGCTGGTC (sugars k3 d10 k3, PS), with 27%. In the case of ATGATGTTCATGGCTT (sugars k3 d10 k3, PS), under “1 µM”, the target mRNA inhibition was determined as 72%. Same read-out and setting: in the case of AAACCTTGAATGAGTG (sugars k3 d10 k3, PS) it was 37%; in that of “CATATGTGAAGAGCTG (sugars kkdddddddddkekek, PS)”, 35%.

For AATTATTTCTTGCGAG (sugars k3 d10 k3, PS), the target mRNA inhibition (1 µM) turned out to be 16%. Still for that read-out and setting: in the case of GATGGTGATCAGAAGC (sugars k3 d10 k3, PS) it was 52%; in that of AAACCTTCATGCTAGT (sugars k3 d10 k3, PS), 27%.

Turning to “TGATATTCTGTGGCAT (sugars k3 d1 m1 d8 k3, PS)”, the target mRNA inhibition (1 µM) worked out at 61%.

With GAATGCTACTTGAACA (sugars k3 d10 k3, PS), the target mRNA inhibition (1 µM) was 44%. On to TTTATAACTACAAGAG (sugars k3 d10 k3, PS), for which, where the note is “1 µM”, the target mRNA inhibition came out at 38%. The same measure, in the same setting: in the case of GATTTAGAGAGCGATA (sugars k3 d10 k3, PS) it was 44%; in that of TTGCAAAATGTGATGC (sugars k3 d10 k3, PS), 75%; in that of ATAGTAATCACAAGTA (sugars k3 d10 k3, PS), 56%. “TTAATGCCACCCTACC (sugars k3 d9 k3 e1, PS)” registered a target mRNA inhibition (1 µM) of 20%. Same read-out and setting: in the case of “CAAAAGACTTTGAGAC (sugars k3 d9 k3 e1, PS)” it was 13%. For “AATTCACCTTGACTAA (sugars k3 d1 m1 d8 k3, PS)”, the target mRNA inhibition (1 µM) came out at 0%. Still for that read-out and setting: then CCTAAAGGAGATCTGA (sugars k3 d10 k3, PS), with 48%; and “TAAGATACCCAGGTTG (sugars k3 d1 m1 d8 k3, PS)”, with 11%. As to CATCTTAAGATACCCA (sugars k3 d10 k3, PS), the target mRNA inhibition was determined as 0% (0.02 µM); 23% (0.078 µM); 46% (0.313 µM); 76% (1 µM); 75% (1.25 µM); 90% (5 µM). Turning to TAGAATTAAGGGCTAT (sugars k3 d10 k3, PS), for the setting “1 µM”, the target mRNA inhibition amounted to 31%. Turning to TTGAGCCTAAAATTGT (sugars k3 d10 k3, PS), the target mRNA inhibition (1 µM) was found to be 36%. The same measure, in the same setting: in the case of ATAGCTAAGTATACTT (sugars k3 d10 k3, PS) it was 0%. Still for that read-out and setting: in the case of CATAGTTTATATGGAT (sugars k3 d10 k3, PS) it was 56%. Same read-out and setting: in the case of CATCAAGCCCTTTTCA (sugars k3 d10 k3, PS) it was 23%; in that of CACCGCGCTTATTAAT (sugars k3 d10 k3, PS), 7%. Regarding GAGATAAAGCTGCCTG (sugars k3 d10 k3, PS), where the note is “1 µM”, the target mRNA inhibition was determined as 67%. The sequence CTTGAATAGCAAGCCA (sugars k3 d10 k3, PS) showed a target mRNA inhibition (1 µM) of 25%. Same read-out and setting: in the case of “TTGAGTTCTCCACTGC (sugars kkdddddddddkekek, PS)” it was 20%; in that of ACAGAGAATTGTTTAG (sugars k3 d10 k3, PS), 39%; in that of AGCTAATGTATGAGGT (sugars k3 d10 k3, PS), 56%. The same measure, in the same setting: then CATAATCTTGTGCTTG (sugars k3 d10 k3, PS), with 37%. CTCATTTAGCAGCTTG (sugars k3 d10 k3, PS): the target mRNA inhibition (0.02 µM) was found to be 1%; the target mRNA inhibition (0.078 µM) was found to be 10%; the target mRNA inhibition (0.313 µM) came out at 46%; the target mRNA inhibition (1 µM) is 70%; the target mRNA inhibition (1.25 µM) was 65%; the target mRNA inhibition (5 µM) is 90%. Take ATTTGCTGCATTAATG (sugars k3 d10 k3, PS): the target mRNA inhibition (1 µM) was determined as 20%.

In the case of “TGATATGTCAATACTC (sugars k3 d10 k1 d1 k1, PS)”, where the note is “1 µM”, the target mRNA inhibition is 57%. Same read-out and setting: then TGGGAAATTGTTGCTG (sugars k3 d10 k3, PS), with 38%. As to “AGTGCCAAACCAATGT (sugars k3 d9 k3 e1, PS)”, the target mRNA inhibition (1 µM) stood at 60%.

The sequence TTATTAGAAGTCAGCC (sugars k3 d10 k3, PS) displayed a target mRNA inhibition (1 µM) of 36%. On the same count and under the same terms, in the case of TAATGTATGAGGTCTC (sugars k3 d10 k3, PS) it was 51%. ATCTAGCAACCTCTAT (sugars k3 d10 k3, PS) registered a target mRNA inhibition (1 µM) of 12%. For the sequence “CTCTUAGCTGTGCACT (sugars k3 d1 m1 d8 k3, PS)”, the target mRNA inhibition runs as follows: (0.02 µM) 16%; (0.078 µM) 14%; (0.313 µM) 33%; (1 µM) 67%; (1.25 µM) 52%; (5 µM) 58%. Take “AAGTTAGCCCCCAGGA (sugars k3 d9 k3 e1, PS)”: where the note is “1 µM”, the target mRNA inhibition was found to be 23%. For the setting “1 µM”, CTAGGATTAATCATGG (sugars k3 d10 k3, PS) displayed a target mRNA inhibition of 65%. Same read-out and setting: then “GCTCCATAATAATAGC (sugars k3 d9 k3 e1, PS)”, with 8%. For the setting “1 µM”, ATATAACATGGCTGGC (sugars k3 d10 k3, PS) showed a target mRNA inhibition of 29%. Where the note is “1 µM”, “CTTATTGGTAAGTATT (sugars k3 d9 k3 e1, PS)” displayed a target mRNA inhibition of 24%. Still for that read-out and setting: then TTAAGAGAAGGTGCAC (sugars k3 d10 k3, PS), with 38%; and GCTAAGTAGTAATTCT (sugars k3 d10 k3, PS), with 57%; and TAGTAATTGCTATAGT (sugars k3 d10 k3, PS), with 7%.

As for “GTAGCTTTTGTCCACC (sugars kkdddddddddkekek, PS)”, the target mRNA inhibition (1 µM) was determined as 34%. As to GTTAGAATAGTCTTCA (sugars k3 d10 k3, PS), the target mRNA inhibition (1 µM) worked out at 46%. Sequence “TTGGTAAGTATTCCAT (sugars kkdddddddddkekek, PS)” came in with a target mRNA inhibition (1 µM) of 13%.
